Measurements published in ChEMBL document CHEMBL6134845, “O-derivatization of natural tropolone and β-thujaplicin leading to effective inhibitors of human carbonic anhydrases IX and XII” (Eur J Med Chem, 2025).

What was measured:
Carbonic anhydrase 12 = Carbonic anhydrase 12 (Homo sapiens, UniProt O43570); test: Inhibition of human CA-XII incubated for 15 mins by stopped-flow CO2 hydration assay
Carbonic anhydrase 1 = Carbonic anhydrase 1 (Homo sapiens, UniProt P00915); test: Inhibition of human CA-I incubated for 15 mins by stopped-flow CO2 hydration assay
Sequence of Carbonic anhydrase 1 (P00915 whole entry): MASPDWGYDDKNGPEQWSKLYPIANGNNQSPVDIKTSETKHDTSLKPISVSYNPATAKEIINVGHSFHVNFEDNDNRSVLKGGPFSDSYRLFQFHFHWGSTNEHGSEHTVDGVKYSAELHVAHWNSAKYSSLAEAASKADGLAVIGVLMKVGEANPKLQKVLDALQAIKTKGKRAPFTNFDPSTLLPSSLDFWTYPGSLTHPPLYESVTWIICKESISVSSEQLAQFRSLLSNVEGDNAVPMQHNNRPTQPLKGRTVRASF

Homo sapiens [1] = species: Homo sapiens; test: Inhibition of […] human CA-II H94D mutant using p-nitrophenylacetate as substrate at 500 uM preincubated for 10 mins followed by substrate addition by absorbance based assay relative to control
[2] = Inhibition of […] human CA-II L198G mutant using p-nitrophenylacetate as substrate preincubated for 15 mins followed by substrate addition measured for 20 mins by absorbance based assay
[3] = biological target: Carbonic anhydrase 5A, mitochondrial (Homo sapiens, UniProt P35218); test: Inhibition of human CA-VA incubated for 15 mins by stopped-flow CO2 hydration assay
Sequence of Carbonic anhydrase 5A, mitochondrial (P35218 whole entry): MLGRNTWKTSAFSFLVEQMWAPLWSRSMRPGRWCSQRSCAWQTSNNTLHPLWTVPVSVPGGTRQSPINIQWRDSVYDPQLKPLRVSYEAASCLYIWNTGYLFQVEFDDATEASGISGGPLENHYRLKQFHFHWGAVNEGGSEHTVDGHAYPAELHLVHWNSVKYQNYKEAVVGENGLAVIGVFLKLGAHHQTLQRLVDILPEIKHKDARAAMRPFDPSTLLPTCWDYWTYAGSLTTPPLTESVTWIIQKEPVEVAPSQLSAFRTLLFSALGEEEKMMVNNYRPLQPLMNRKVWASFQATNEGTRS

Carbonic anhydrase 9 = Carbonic anhydrase 9 (Homo sapiens, UniProt Q16790)
Description: Inhibition of human CA-IX incubated for 15 mins by stopped-flow CO2 hydration assay

Homo sapiens [4] = species: Homo sapiens; test: Inhibition of […] human CA-II H94C mutant using p-nitrophenylacetate as substrate at 500 uM preincubated for 10 mins followed by substrate addition by absorbance based assay relative to control
Carbonic anhydrase 2 [5] = biological target: T1, Carbonic anhydrase 2 (Homo sapiens, UniProt P00918); test: Inhibition of human CA-II incubated for 15 mins by stopped-flow CO2 hydration assay
Carbonic anhydrase 2 [6] = biological target: T1, Carbonic anhydrase 2; test: Inhibition of wild-type human CA-II using p-nitrophenylacetate as substrate preincubated for 15 mins followed by substrate addition measured for 20 mins by absorbance based assay
Carbonic anhydrase 7 = Carbonic anhydrase 7 (Homo sapiens, UniProt P43166); test: Inhibition of human CA-VII incubated for 15 mins by stopped-flow CO2 hydration assay
Sequence of Carbonic anhydrase 7 (P43166 whole entry): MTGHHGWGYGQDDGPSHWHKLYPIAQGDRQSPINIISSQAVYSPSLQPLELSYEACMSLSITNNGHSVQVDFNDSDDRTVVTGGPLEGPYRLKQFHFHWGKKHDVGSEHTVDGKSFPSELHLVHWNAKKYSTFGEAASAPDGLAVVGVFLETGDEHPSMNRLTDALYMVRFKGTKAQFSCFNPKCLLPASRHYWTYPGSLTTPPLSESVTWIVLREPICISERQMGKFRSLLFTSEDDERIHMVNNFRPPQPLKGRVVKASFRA

Carbonic anhydrase 2 [7] = biological target: T1, Carbonic anhydrase 2; test: Inhibition of wild-type human CA-II using p-nitrophenylacetate as substrate at 500 uM preincubated for 10 mins followed by substrate addition by absorbance based assay relative to control
[8] = Induction of apoptosis in human BZB-resistant NCI-H929 cells assessed as viable cells at 5 uM incubated for 48 hrs by Annexin V/7-AAD staining based FACS analysis (reference value: 86.7 %); assay type: functional; settings: BZB-resistant […] cell, read-out: Activity
[9] = Induction of apoptosis in human BZB-resistant NCI-H929 cells assessed as viable cells at 2.5 uM incubated for 48 hrs by Annexin V/7-AAD staining based FACS analysis (reference value: 86.7 %); assay type: functional; settings: BZB-resistant […] cell, read-out: Activity
[10] = Induction of apoptosis in human BZB-resistant NCI-H929 cells assessed as viable cells at 10 uM incubated for 48 hrs by Annexin V/7-AAD staining based FACS analysis (reference value: 86.7 %); assay type: functional; settings: BZB-resistant […] cell, read-out: Activity
[11] = Antiproliferative activity against human PBMC cells assessed as decrease in cell viability at 10 uM incubated for 48 hrs by Cell Titer Glo assay; assay type: toxicity, cell-based

Sequence of Carbonic anhydrase 12 (O43570 whole entry): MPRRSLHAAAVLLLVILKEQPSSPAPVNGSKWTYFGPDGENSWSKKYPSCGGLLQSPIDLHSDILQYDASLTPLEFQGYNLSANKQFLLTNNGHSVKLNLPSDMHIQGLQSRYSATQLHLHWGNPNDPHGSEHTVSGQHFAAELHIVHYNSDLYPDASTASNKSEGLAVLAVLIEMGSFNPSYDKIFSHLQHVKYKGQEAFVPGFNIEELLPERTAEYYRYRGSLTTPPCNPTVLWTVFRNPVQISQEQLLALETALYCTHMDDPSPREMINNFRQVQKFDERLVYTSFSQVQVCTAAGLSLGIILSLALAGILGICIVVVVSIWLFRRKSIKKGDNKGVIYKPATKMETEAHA

SMILES | Ki (Carbonic anhydrase 1) [µM] | Ki [3] [µM] | Ki (Carbonic anhydrase 9) [µM] | Ki (Carbonic anhydrase 7) [µM] | other results
O=c1cccccc1O [TROPOLONE] | > 100 | > 100 | > 100 | > 100 | Ki (Carbonic anhydrase 12): > 100 µM; inhibition (Homo sapiens [1]): 47%; Ki [2]: 245 µM; inhibition (Homo sapiens [4]): 0%; Ki (Carbonic anhydrase 2 [5]): > 100 µM; Ki (Carbonic anhydrase 2 [6]): 1350 µM
O=C(Oc1cccccc1=O)c1ccc([N+](=O)[O-])cc1 | 84.4 |  | > 100 | > 100 | 
O=c1cccccc1OCc1cccc2ccccc12 | > 100 |  | 2.28 | 2.82 | 
CC(C)c1cccc(=O)c(OCc2ccccc2[N+](=O)[O-])c1 | > 100 | 8.96 | 1.41 | 5.41 | 
O=c1cccccc1OCc1cccc([N+](=O)[O-])c1 | > 100 |  | 34.5 | > 100 | 
O=c1cccccc1OCc1ccc(Br)cc1 | > 100 | > 100 | 37.7 |  | 
O=c1cccccc1S |  |  |  |  | Ki [2]: 61 µM; Ki (Carbonic anhydrase 2 [6]): 96 µM
Cc1ccc(S(=O)(=O)Oc2cccc(C(C)C)cc2=O)cc1 | > 100 | 4.45 | 0.4 | 5.27 | 
O=c1cccccc1OCc1ccccc1[N+](=O)[O-] | 8.01 | > 100 | > 100 | > 100 | 
C#CCOc1cccccc1=O | 0.05 | > 100 |  |  | 
CC(C)c1cccc(=O)c(OCc2ccccc2C(F)(F)F)c1 |  | 83.5 |  | > 100 | 
O=c1cccccc1OCCCCCBr | > 100 |  | 0.54 | 1.52 | 
CC(C)c1cccc(=O)c(O)c1 [HINOKITIOL] | 4.98 | 7.5 | 23.9 | > 100 | Ki (Carbonic anhydrase 12): > 100 µM; inhibition (Homo sapiens [1]): 47%; inhibition (Homo sapiens [4]): 0%; Ki (Carbonic anhydrase 2 [5]): 90.6 µM; inhibition (Carbonic anhydrase 2 [7]): 16%
Cc1ccc(S(=O)(=O)Oc2cc(C(C)C)cccc2=O)cc1 | > 100 |  | 0.42 | 9.33 | viability at 5 µM [8]: 74.5%; viability at 2.5 µM [9]: 78.1%; viability at 10 µM [10]: 36.7%; Activity [11]: Non-toxic
CC(C)c1cccc(OCc2ccccc2C(F)(F)F)c(=O)c1 |  | > 100 | > 100 | > 100 | 
CC(C)c1cccc(OCc2cccc3ccccc23)c(=O)c1 | > 100 | 89.4 | 0.53 | 3.95 | 
CC(C)c1cccc(OC(=O)c2ccc([N+](=O)[O-])cc2)c(=O)c1 | > 100 | > 100 | 0.37 | 9.6 | 
O=C(Oc1cccccc1=O)C12CC3CC(CC(C3)C1)C2 |  | 85.6 | 43.5 |  | 
CC(C)c1cccc(OCCCCCOc2cccc(C(C)C)cc2=O)c(=O)c1 | > 100 | 31.6 | 1.33 | 7.1 | 
O=c1cccccc1OCc1ccccc1C(F)(F)F | > 100 | 6.63 | 4.3 | 6.19 | 
O=c1cccccc1OCCCCl | > 100 |  | 8.94 | 5.2 | 
Cc1ccc(S(=O)(=O)Oc2cccccc2=O)cc1 | 94.2 | > 100 | > 100 | > 100 | 
CC(C)c1cccc(OCc2ccccc2[N+](=O)[O-])c(=O)c1 |  | 21.7 | 0.94 | 6.18 | 
N#Cc1ccc(COc2cccccc2=O)cc1 | 8.31 | > 100 | > 100 | > 100 | 
O=C(O)COc1cccccc1=O |  | 8.11 | 25.6 |  | 
O=c1cccccc1OCc1ccc([N+](=O)[O-])cc1 | 6.22 | > 100 | 13.3 | > 100 | 
CC(C)c1cccc(OCc2ccc(Br)cc2)c(=O)c1 | > 100 | 7.95 | 0.26 | 0.96 | 
